Source: patent US20240252581A1, “COMPOSITIONS AND METHODS FOR TREATING RESPIRATORY DISTRESS” (S.I.S. SHULOV INNOVATIVE SCIENCE LTD., priority 2021, published 2024)
“And” between values parts separate entries of the source, which are not always exact repeats. Equal values may be shown once. Read-outs that look alike come from different tables or passages of the source. Square brackets hold non-standard residues; d marks the D form. Peptide text beside a SMILES is read from it. * marks the point of attachment. pGlu = O=C1CC[C@@H](C(=O)O)N1; Octanoyl = CCCCCCCC(=O)*

What was measured:
ACE2 mRNA = experiment: Relative ACE2 mRNA expression in lung tissue (real-time quantitative PCR); assay type: in vivo, mouse; details: in relation to rplO gene
Description: In order to test the efficacy of ZEP3 sodium on lung inflammation, the lipopolysaccharide (LPS)-induced acute lung injury model was used. In particular, LPS was administered intratracheally at doses of 10 or 40 mg/kg body weight (BW) corresponding to 0.2 or 0.8 mg/mouse, respectively.
Relative ACE2 mRNA expression in lung tissue was determined as follows: mRNA was extracted from lung tissues, real-time quantitative PCR was employed, and expression of ACE2 gene in relation to rplO gene was measured.

[1] = Toxicity of ZEP3Na in intratracheal administration, daily for 14 days; assay type: in vivo, rats
Description: The toxicological effect of ZEP3Na administered intratracheally to rats was evaluated. Doses of 0.5, 1.0, and 2.5 mg ZEP3Na dissolved in saline were administered daily into the lungs for a period of 14 days. On day 15, necroscopy and histology of brain, heart, thymus, lungs, spleen, liver, kidneys, and gonads were performed. In addition, blood cell counts and chemistry parameters were counted. Also, the cell distribution (%) of the bronchial alveolar lavage fluid (BALF) was determined by FACS instrumentation for B cells, T cells, neutrophils, and macrophages.

[2] = Oxygen saturation in mouse model of LPS-inflamed lungs (Rodent Pulse Oximeter); assay type: in vivo, Balb/C female mice; details: for Oxygen saturation, group mean: mean of 10 mice; for Oxygen saturation, individual mouse: single animals
Description: Evaluation of the effect of ZEP3Na administration via inhalation on oxygen saturation in a mouse model of inflamed lungs by the lipopolysaccharides (LPS) was performed. Oxygen saturation testing was performed at several time points on mice that have been anesthetized by isoflurane. A sensor was attached to the hind foot of the mice and the percentage of oxygen in the blood was measured using the Rodent Pulse Oximeter instrument (Kent Scientific).
Following LPS intratracheal instillation, a marked reduction in blood oxygen saturation levels was detected. ZEP3Na was then administered by inhalation at two doses 6 h and 14 h after LPS administration and the effect of ZEP3Na on blood oxygen saturation was monitored 0, 2, 6, 12, 24 and 48 hours following ZEP3Na administration. Saturation data was analyzed by ANOVA followed by Tukey-Kramer test. Significance level was defined as ∝=0.05.

[3] = determined daily during the study
Description: The effect of ZEP3Na administered intratracheally in a mice model of acute respiratory distress syndrome was evaluated. BALB/c mice were anaesthetized and orally intubated with a sterile plastic catheter and challenged with intratracheal instillation of 0.2 mg or 0.8 mg of LPS dissolved in 50 μL of PBS. Naïve mice (without LPS instillation) were injected with the same volume of saline to serve as controls. Six hours following LPS instillation, mice were administered intratracheally with ZEP3Na at two doses, namely 0.1 and 0.4 mg. The study was terminated 72 hours after LPS challenge to collect tissues for analysis.
Animal body weights were determined daily during the study.

[4] = rats, 0.5, 1.0, and 2.5 mg intratracheally daily for 14 days
[5] = Group 2: LPS 800 μg + ZEP3Na 10 mg by inhalation at 6 h, time point 0 h
[6] = Group 2: LPS 800 μg + ZEP3Na 10 mg by inhalation at 6 h, time point 2 h
[7] = Group 2: LPS 800 μg + ZEP3Na 10 mg by inhalation at 6 h, time point 6 h
[8] = Group 2: LPS 800 μg + ZEP3Na 10 mg by inhalation at 6 h, time point 12 h
[9] = Group 2: LPS 800 μg + ZEP3Na 10 mg by inhalation at 6 h, time point 24 h
[10] = Group 2: LPS 800 μg + ZEP3Na 10 mg by inhalation at 6 h, time point 48 h
[11] = Group 3: LPS 800 μg + ZEP3Na 10 mg by inhalation at 6 h + 14 h, time point 0 h
[12] = Group 3: LPS 800 μg + ZEP3Na 10 mg by inhalation at 6 h + 14 h, time point 2 h
[13] = Group 3: LPS 800 μg + ZEP3Na 10 mg by inhalation at 6 h + 14 h, time point 6 h
[14] = Group 3: LPS 800 μg + ZEP3Na 10 mg by inhalation at 6 h + 14 h, time point 12 h
[15] = Group 3: LPS 800 μg + ZEP3Na 10 mg by inhalation at 6 h + 14 h, time point 24 h
[16] = Group 3: LPS 800 μg + ZEP3Na 10 mg by inhalation at 6 h + 14 h, time point 48 h
[17] = Group 4: LPS 800 μg + ZEP3Na 50 mg by inhalation at 6 h, time point 0 h
[18] = Group 4: LPS 800 μg + ZEP3Na 50 mg by inhalation at 6 h, time point 2 h
[19] = Group 4: LPS 800 μg + ZEP3Na 50 mg by inhalation at 6 h, time point 6 h
[20] = Group 4: LPS 800 μg + ZEP3Na 50 mg by inhalation at 6 h, time point 12 h
[21] = Group 4: LPS 800 μg + ZEP3Na 50 mg by inhalation at 6 h, time point 24 h
[22] = Group 4: LPS 800 μg + ZEP3Na 50 mg by inhalation at 6 h, time point 48 h
[23] = Group 5: LPS 800 μg + ZEP3Na 50 mg by inhalation at 6 h + 14 h, time point 0 h
[24] = Group 5: LPS 800 μg + ZEP3Na 50 mg by inhalation at 6 h + 14 h, time point 2 h
[25] = Group 5: LPS 800 μg + ZEP3Na 50 mg by inhalation at 6 h + 14 h, time point 6 h
[26] = Group 5: LPS 800 μg + ZEP3Na 50 mg by inhalation at 6 h + 14 h, time point 12 h
[27] = Group 5: LPS 800 μg + ZEP3Na 50 mg by inhalation at 6 h + 14 h, time point 24 h
[28] = Group 5: LPS 800 μg + ZEP3Na 50 mg by inhalation at 6 h + 14 h, time point 48 h
[29] = administration by inhalation, 800 μg LPS

CCCCCCCC(=O)NCCCC[C@H](NC(=O)[C@H](Cc1c[nH]c2ccccc12)NC(=O)[C@H](CC(N)=O)NC(=O)[C@@H]1CCC(=O)N1)C(=O)O [ZEP3Na, pGlu-Asn-Trp-Lys(Octanoyl)-ONa] ([pGlu]NWK(Octanoyl)-OH)
Relative ACE2 mRNA expression (Mean ± SEM) (ACE2 mRNA; LPS 0.2 mg + ZEP3 Na 0.1 mg): 0.672 ± 0.145
Relative ACE2 mRNA expression (Mean ± SEM) (ACE2 mRNA; LPS 0.2 mg + ZEP3 Na 0.4 mg): 1.239 ± 0.132
Relative ACE2 mRNA expression (Mean ± SEM) (ACE2 mRNA; LPS 0.8 mg + ZEP3 Na 0.1 mg): 0.223 ± 0.031
Relative ACE2 mRNA expression (Mean ± SEM) (ACE2 mRNA; LPS 0.8 mg + ZEP3 Na 0.1 mg, listed as ZEP3 sodium): 0.22
Relative ACE2 mRNA expression (Mean ± SEM) (ACE2 mRNA; LPS 0.8 mg + ZEP3 Na 0.4 mg): 0.805 ± 0.251
Relative ACE2 mRNA expression (Mean ± SEM) (ACE2 mRNA; ZEP3 Na 0.1 mg, no LPS): 1.750 ± 0.320
Relative ACE2 mRNA expression (Mean ± SEM) (ACE2 mRNA; ZEP3 Na 0.4 mg, no LPS): 0.303 ± 0.025
blood counts and chemistry [1, 4]: comparable to the reference items
body weight [1, 4]: remained similar to that of the control group
mortality or abnormal signs of behavior [1, 4]: No mortality or abnormal signs of behavior
distribution of B cells, T cells, neutrophils, and macrophages in BALF ([1]; rats, 0.5, 1.0, and 2.5 mg intratracheally daily for 14 days, FACS): No changes
necroscopy and histology of the inspected organs ([1]; rats, day 15, brain, heart, thymus, lungs, spleen, liver, kidneys, gonads): no pathological changes
adverse effects in all parameters tested ([1]; rats, intratracheal, up to 2.5 mg daily for 14 days): did not result in any detectable adverse effects
Oxygen saturation, group mean [2, 5]: 97.2%
Oxygen saturation, individual mouse [2, 5]: 99% (4×) and 93% and 97% and 98% (2×) and 95% (2×)
Oxygen saturation, group mean [2, 6]: 70.0%
Oxygen saturation, individual mouse [2, 6]: 77% and 67% and 78% (2×) and 61% and 71% and 59% and 72% and 74% and 63%
Oxygen saturation, group mean [2, 7]: 86.2%
Oxygen saturation, individual mouse [2, 7]: 81% and 88% (2×) and 87% (2×) and 91% and 82% and 84% and 85% and 89%
Oxygen saturation, group mean [2, 8]: 93.5%
Oxygen saturation, individual mouse [2, 8]: 92% (2×) and 96% and 95% (2×) and 93% and 90% and 94% (3×)
Oxygen saturation, group mean [2, 9]: 89.0%
Oxygen saturation, individual mouse [2, 9]: 86% (2×) and 87% and 89% and 88% and 90% (2×) and 83% and 92% and 99%
Oxygen saturation, group mean [2, 10]: 92.9%
Oxygen saturation, individual mouse [2, 10]: 91% (5×) and 94% and 97% (3×) and 89%
Oxygen saturation, group mean [2, 11]: 96.2%
Oxygen saturation, individual mouse [2, 11]: 97% (2×) and 96% and 99% (2×) and 94% (2×) and 93% and 95% and 98%
Oxygen saturation, group mean [2, 12]: 71.1%
Oxygen saturation, individual mouse [2, 12]: 70% and 68% and 71% (2×) and 80% and 73% and 64% and 75% and 62% and 77%
Oxygen saturation, group mean [2, 13]: 87.1%
Oxygen saturation, individual mouse [2, 13]: 86% (2×) and 88% (2×) and 89% (2×) and 92% and 81% and 82% and 90%
Oxygen saturation, group mean [2, 14]: 92.5%
Oxygen saturation, individual mouse [2, 14]: 92% (2×) and 90% (2×) and 94% and 97% and 95% and 88% and 91% and 96%
Oxygen saturation, group mean [2, 15]: 92.1%
Oxygen saturation, individual mouse [2, 15]: 96% (2×) and 94% and 88% and 86% and 93% (3×) and 92% and 90%
Oxygen saturation, group mean [2, 16]: 93.0%
Oxygen saturation, individual mouse [2, 16]: 91% (4×) and 92% (2×) and 97% (2×) and 94% (2×)
Oxygen saturation, group mean [2, 17]: 97.2%
Oxygen saturation, individual mouse [2, 17]: 95% (3×) and 97% (3×) and 99% (4×)
Oxygen saturation, group mean [2, 18]: 72.7%
Oxygen saturation, individual mouse [2, 18]: 69% and 81% and 72% (2×) and 73% and 79% (2×) and 65% and 66% and 71%
Oxygen saturation, group mean [2, 19]: 86.7%
Oxygen saturation, individual mouse [2, 19]: 86% (3×) and 90% and 88% (2×) and 87% (2×) and 85% and 84%
Oxygen saturation, group mean [2, 20]: 94.5%
Oxygen saturation, individual mouse [2, 20]: 93% and 89% and 94% (3×) and 95% and 96% (3×) and 98%
Oxygen saturation, group mean [2, 21]: 94.0%
Oxygen saturation, individual mouse [2, 21]: 93% (2×) and 94% and 95% (2×) and 90% and 99% and 92% (2×) and 97%
Oxygen saturation, group mean [2, 22]: 97.0%
Oxygen saturation, individual mouse [2, 22]: 93% and 95% and 98% (5×) and 99% and 97% and 96%
Oxygen saturation, group mean [2, 23]: 96.6%
Oxygen saturation, individual mouse [2, 23]: 97% (3×) and 94% (2×) and 96% and 99% (2×) and 98% and 95%
Oxygen saturation, group mean [2, 24]: 71.8%
Oxygen saturation, individual mouse [2, 24]: 63% and 71% and 69% and 92% and 73% and 75% and 72% and 76% and 66% and 61%
Oxygen saturation, group mean [2, 25]: 86.8%
Oxygen saturation, individual mouse [2, 25]: 88% (2×) and 90% and 84% and 89% and 86% (2×) and 85% (2×) and 87%
Oxygen saturation, group mean [2, 26]: 94.0%
Oxygen saturation, individual mouse [2, 26]: 92% and 94% (3×) and 90% and 93% and 95% (2×) and 96% and 97%
Oxygen saturation, group mean [2, 27]: 93.8%
Oxygen saturation, individual mouse [2, 27]: 90% and 91% (3×) and 93% (2×) and 98% (2×) and 99% and 94%
Oxygen saturation, group mean [2, 28]: 97.1%
Oxygen saturation, individual mouse [2, 28]: 99% (3×) and 97% (3×) and 91% and 98% (2×) and 96%
elevation in oxygen saturation levels as compared to LPS with no treatment [2, 29]: ≤ 20%
oxygen saturation levels that have been reduced by LPS [2, 29]: significantly increased
time following treatment at which increase in oxygen saturation is statistically significant ([2]; administration by inhalation, LPS model): 12 h
animal weight ([2]; throughout the experiment): substantially constant
body weight [3]: No major changes
